Laboratory results reported in ChEMBL document CHEMBL6078616, “Seven-membered N-heterocycles as approved drugs and promising leads in medicinal chemistry as well as the metal-free domino access to their scaffolds” (Eur J Med Chem, 2024).

What was measured:
Histone deacetylase 1 = Histone deacetylase 1 (Homo sapiens, UniProt Q13547); test: Inhibition of HDAC1 (unknown origin)
Histone deacetylase 3 = Histone deacetylase 3 (Homo sapiens, UniProt O15379); test: Inhibition of HDAC3 (unknown origin)
Histone deacetylase 4 = Histone deacetylase 4 (Homo sapiens, UniProt P56524); test: Inhibition of HDAC4 (unknown origin)
Histone deacetylase 5 = Histone deacetylase 5 (Homo sapiens, UniProt Q9UQL6); test: Inhibition of HDAC5 (unknown origin)
[1] = target: T1, Protein deacetylase HDAC6 (Homo sapiens, UniProt Q9UBN7); test: Inhibition of HDAC6 (unknown origin)
T1 sequence (Q9UBN7 whole entry): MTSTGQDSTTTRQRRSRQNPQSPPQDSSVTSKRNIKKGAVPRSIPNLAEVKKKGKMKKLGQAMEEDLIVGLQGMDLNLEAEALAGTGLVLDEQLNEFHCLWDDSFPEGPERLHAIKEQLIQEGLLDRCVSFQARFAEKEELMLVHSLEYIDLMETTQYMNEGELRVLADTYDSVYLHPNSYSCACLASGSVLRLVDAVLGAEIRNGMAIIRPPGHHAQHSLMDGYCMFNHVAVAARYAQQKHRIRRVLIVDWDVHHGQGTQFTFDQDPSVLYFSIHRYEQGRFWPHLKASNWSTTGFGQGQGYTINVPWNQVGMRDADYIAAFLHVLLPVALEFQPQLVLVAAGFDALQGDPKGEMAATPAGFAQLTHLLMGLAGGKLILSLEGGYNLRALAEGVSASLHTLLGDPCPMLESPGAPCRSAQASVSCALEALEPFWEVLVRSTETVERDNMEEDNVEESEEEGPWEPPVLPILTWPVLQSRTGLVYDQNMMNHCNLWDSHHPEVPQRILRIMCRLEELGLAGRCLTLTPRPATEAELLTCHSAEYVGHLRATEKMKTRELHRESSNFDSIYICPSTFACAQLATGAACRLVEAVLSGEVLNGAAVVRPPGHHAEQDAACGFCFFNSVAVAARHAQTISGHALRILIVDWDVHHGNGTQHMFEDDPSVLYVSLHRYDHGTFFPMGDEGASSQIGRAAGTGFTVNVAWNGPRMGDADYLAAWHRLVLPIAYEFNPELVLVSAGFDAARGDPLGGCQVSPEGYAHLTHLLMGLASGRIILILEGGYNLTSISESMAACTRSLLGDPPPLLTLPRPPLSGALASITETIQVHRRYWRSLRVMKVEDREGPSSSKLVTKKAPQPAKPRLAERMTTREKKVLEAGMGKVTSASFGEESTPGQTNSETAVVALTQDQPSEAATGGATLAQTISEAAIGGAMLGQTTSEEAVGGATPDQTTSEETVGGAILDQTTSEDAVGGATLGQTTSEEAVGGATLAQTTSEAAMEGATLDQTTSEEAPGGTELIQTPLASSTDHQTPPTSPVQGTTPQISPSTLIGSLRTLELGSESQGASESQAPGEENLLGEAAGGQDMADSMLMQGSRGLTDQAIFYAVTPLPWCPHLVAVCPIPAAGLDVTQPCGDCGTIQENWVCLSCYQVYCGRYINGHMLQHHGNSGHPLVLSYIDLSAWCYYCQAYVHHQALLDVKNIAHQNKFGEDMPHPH

Histone deacetylase 8 = target: T2, Histone deacetylase 8 (Homo sapiens, UniProt Q9BY41); test: Inhibition of HDAC8 (unknown origin)
T2 sequence (Q9BY41 whole entry): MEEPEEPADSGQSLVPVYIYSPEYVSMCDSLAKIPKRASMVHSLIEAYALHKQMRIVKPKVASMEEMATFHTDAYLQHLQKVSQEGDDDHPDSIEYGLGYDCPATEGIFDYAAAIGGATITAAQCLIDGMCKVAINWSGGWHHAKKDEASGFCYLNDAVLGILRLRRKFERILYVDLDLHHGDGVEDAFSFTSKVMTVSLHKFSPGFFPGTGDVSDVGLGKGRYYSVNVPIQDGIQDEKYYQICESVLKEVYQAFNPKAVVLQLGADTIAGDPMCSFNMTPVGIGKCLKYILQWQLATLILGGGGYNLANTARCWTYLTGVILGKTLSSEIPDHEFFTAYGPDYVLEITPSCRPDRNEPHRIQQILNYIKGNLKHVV

Histone deacetylase 9 = Histone deacetylase 9 (Homo sapiens, UniProt Q9UKV0); test: Inhibition of HDAC9 (unknown origin)
[2] = target: T3, Polyamine deacetylase HDAC10 (Homo sapiens, UniProt Q969S8); test: Inhibition of HDAC10 (unknown origin)
T3 sequence (Q969S8 whole entry): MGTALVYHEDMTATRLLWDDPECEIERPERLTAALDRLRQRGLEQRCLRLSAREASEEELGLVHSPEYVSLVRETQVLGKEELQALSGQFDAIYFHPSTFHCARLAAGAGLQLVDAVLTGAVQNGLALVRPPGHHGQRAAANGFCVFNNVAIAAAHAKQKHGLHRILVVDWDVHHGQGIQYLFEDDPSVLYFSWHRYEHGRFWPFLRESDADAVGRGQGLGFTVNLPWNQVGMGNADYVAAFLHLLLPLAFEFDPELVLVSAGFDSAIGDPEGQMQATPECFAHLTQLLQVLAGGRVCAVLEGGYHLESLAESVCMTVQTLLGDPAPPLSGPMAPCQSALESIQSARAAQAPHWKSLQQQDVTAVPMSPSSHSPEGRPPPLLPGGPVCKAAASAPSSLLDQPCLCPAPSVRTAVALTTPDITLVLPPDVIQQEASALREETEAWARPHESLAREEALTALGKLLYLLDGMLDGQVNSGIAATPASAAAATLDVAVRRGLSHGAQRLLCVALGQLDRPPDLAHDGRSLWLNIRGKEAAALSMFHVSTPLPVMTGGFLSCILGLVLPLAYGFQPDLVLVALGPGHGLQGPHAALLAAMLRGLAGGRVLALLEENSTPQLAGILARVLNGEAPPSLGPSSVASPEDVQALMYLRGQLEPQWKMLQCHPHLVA

Histone deacetylase 11 = target: T4, Histone deacetylase 11 (Homo sapiens, UniProt Q96DB2); test: Inhibition of HDAC11 (unknown origin)
T4 sequence (Q96DB2 whole entry): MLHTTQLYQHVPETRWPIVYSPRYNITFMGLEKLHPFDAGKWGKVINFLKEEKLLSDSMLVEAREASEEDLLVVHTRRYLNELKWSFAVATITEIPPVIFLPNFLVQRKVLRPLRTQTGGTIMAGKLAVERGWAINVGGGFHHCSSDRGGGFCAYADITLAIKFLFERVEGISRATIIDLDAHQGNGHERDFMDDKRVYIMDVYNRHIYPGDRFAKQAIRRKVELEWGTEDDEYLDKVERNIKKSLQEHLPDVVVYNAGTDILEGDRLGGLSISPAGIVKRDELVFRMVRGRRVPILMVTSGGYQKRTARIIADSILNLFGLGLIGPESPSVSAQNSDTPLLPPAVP

[3] = target: Sigma intracellular receptor 2 (Homo sapiens, UniProt Q5BJF2); test: Binding affinity to TMEM97 (unknown origin) assessed as inhibition constant
Trypanosoma cruzi = test: Antitrypanosomal activity against Trypanosoma cruzi Y strain trypomastigotes […] in African green monkey Vero cells assessed as inhibition of parasite growth incubated for 24 hrs by Neubauer chamber based analysis; assay type: functional, organism-based
Leishmania infantum = test: Antileishmanial activity against Leishmania infantum promastigote assessed as reduction in parasite growth after 72 hrs by MTT assay; assay type: functional, organism-based
[4] = Cytotoxicity against African green monkey Vero cells assessed as reduction in cell viability incubated for 72 hrs by MTT assay; assay type: toxicity, cell-based; conditions: chlorocebus sabaeus
[5] = Cytotoxicity against human THP-1 cells assessed as reduction in cell viability; assay type: toxicity, cell-based
HeLa = test: cells; conditions: Homo sapiens
Description: Antiproliferative activity against human HeLa cells assessed as reduction in cell viability

Sequence of Sigma intracellular receptor 2 (Q5BJF2 whole entry): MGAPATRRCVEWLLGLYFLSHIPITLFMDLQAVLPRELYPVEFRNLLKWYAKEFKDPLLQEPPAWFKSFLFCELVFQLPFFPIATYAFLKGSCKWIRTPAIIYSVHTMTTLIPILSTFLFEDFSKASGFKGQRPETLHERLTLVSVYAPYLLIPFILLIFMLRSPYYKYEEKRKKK
Sequence of Histone deacetylase 4 (P56524 whole entry): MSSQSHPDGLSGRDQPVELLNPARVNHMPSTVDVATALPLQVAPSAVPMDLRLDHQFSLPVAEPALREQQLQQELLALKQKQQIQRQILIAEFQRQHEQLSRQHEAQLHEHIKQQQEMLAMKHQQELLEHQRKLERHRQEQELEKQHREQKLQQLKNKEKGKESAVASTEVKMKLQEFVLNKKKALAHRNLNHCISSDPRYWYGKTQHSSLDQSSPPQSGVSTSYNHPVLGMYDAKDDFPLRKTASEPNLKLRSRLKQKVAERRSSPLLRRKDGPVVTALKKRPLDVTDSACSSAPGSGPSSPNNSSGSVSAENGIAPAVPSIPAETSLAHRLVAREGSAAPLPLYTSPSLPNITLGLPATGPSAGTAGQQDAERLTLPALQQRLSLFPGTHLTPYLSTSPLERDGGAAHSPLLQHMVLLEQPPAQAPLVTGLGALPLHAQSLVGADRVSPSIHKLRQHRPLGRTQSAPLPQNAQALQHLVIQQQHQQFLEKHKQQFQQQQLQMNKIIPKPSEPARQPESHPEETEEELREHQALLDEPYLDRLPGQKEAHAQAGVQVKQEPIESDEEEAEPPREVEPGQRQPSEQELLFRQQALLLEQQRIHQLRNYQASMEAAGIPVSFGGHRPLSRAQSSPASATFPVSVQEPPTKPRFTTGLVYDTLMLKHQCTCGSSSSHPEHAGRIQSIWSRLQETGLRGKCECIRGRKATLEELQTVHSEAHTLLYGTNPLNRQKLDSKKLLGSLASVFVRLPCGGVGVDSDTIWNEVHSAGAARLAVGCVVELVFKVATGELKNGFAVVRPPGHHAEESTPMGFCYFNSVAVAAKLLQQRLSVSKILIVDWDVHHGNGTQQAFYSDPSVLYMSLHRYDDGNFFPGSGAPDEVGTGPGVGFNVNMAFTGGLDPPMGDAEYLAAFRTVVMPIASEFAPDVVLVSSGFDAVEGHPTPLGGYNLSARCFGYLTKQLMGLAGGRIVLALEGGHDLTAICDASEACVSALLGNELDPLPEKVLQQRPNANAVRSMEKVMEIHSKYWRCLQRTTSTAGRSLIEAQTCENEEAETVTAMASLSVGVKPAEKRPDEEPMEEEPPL
Sequence of Histone deacetylase 1 (Q13547 whole entry): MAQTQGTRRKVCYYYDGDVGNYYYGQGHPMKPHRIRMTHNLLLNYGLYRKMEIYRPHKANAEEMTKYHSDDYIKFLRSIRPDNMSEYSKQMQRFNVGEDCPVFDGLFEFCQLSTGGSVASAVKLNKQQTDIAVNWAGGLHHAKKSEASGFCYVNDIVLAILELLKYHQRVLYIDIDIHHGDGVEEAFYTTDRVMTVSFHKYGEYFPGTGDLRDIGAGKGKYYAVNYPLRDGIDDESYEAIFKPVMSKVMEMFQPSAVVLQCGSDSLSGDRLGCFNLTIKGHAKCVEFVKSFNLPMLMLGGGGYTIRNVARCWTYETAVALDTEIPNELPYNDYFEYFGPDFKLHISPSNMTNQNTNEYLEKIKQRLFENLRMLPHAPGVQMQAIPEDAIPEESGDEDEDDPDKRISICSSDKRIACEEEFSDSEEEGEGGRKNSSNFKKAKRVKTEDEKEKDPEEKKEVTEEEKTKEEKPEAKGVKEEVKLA
Sequence of Histone deacetylase 9 (Q9UKV0 whole entry): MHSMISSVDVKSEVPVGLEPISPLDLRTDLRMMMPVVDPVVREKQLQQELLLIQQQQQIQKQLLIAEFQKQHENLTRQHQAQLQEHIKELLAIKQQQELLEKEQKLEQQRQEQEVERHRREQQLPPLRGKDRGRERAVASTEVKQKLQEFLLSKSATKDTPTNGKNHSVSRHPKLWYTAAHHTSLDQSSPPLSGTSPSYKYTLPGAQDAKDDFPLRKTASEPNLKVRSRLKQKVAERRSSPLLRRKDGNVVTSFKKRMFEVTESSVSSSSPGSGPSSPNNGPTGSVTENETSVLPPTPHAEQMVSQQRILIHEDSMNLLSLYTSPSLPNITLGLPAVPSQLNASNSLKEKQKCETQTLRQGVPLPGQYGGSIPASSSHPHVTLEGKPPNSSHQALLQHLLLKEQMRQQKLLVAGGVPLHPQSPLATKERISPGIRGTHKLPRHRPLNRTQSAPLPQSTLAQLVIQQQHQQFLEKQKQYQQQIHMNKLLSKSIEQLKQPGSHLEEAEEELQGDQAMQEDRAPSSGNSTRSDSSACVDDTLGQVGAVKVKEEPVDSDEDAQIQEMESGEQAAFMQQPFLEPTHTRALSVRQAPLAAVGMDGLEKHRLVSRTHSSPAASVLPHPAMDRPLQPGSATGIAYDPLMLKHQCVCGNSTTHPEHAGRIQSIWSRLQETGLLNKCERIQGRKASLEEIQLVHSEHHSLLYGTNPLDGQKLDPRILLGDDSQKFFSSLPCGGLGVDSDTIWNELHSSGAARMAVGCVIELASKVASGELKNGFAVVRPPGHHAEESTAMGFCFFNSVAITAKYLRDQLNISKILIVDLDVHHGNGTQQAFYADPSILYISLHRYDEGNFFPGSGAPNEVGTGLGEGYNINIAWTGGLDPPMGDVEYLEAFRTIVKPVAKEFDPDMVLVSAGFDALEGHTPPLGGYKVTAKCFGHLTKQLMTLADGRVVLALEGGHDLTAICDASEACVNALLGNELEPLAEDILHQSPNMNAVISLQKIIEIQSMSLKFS
Sequence of Histone deacetylase 5 (Q9UQL6 whole entry): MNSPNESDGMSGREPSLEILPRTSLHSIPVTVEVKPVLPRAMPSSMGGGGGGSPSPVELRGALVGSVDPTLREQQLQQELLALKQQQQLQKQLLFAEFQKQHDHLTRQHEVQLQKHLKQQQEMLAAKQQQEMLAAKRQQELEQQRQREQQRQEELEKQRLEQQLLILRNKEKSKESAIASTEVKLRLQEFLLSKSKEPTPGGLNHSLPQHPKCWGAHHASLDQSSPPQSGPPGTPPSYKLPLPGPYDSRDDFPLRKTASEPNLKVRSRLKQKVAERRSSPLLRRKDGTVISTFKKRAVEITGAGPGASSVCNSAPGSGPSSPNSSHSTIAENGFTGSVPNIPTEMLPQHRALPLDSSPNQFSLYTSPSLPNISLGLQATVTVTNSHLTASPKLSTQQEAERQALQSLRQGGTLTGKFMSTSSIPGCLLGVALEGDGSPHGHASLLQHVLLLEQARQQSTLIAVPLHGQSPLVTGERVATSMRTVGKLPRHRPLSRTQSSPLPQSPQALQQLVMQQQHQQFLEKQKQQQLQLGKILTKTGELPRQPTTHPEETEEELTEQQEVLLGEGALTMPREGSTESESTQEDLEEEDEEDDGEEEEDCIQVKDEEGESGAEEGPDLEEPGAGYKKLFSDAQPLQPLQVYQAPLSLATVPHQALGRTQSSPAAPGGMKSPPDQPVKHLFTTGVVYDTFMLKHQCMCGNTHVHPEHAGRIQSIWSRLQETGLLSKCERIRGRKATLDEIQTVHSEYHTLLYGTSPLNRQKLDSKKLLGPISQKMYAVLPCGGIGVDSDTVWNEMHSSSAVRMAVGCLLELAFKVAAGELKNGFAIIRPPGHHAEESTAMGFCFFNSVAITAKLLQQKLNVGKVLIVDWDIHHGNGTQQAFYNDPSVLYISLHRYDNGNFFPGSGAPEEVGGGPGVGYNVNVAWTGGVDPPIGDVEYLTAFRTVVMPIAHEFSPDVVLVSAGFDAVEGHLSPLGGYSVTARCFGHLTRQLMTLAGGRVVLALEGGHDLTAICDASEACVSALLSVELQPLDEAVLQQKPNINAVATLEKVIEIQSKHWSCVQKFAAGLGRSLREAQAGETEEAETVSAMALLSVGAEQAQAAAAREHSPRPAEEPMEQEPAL
Sequence of Histone deacetylase 3 (O15379 whole entry): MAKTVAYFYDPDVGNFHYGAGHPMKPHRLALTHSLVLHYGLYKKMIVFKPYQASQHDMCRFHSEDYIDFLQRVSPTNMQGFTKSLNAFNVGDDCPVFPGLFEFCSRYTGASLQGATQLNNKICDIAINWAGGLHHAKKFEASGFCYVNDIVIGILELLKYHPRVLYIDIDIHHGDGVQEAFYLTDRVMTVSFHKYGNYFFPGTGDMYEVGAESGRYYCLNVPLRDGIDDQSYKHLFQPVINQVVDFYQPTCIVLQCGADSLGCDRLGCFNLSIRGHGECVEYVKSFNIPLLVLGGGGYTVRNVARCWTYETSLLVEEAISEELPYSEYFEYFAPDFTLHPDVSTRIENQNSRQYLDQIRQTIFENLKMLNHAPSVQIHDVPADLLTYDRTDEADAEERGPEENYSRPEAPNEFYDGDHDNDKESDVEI

Row | Compound | IC50 (Trypanosoma cruzi) [µM] | IC50 (Leishmania infantum) [µM] | CC50 at 72 h [4] [µM] | CC50 [5] [µM] | further results
1 | O=C(NO)c1ccc(CN2c3ccccc3SC[C@H]3CCCCC[C@H]32)cc1 | – | – | – | – | IC50 (Histone deacetylase 1): > 30 µM; IC50 (Histone deacetylase 3): > 30 µM; IC50 (Histone deacetylase 4): > 30 µM; IC50 (Histone deacetylase 5): > 30 µM; IC50 [1]: 0.03 µM; IC50 (Histone deacetylase 8): 6.7 µM; IC50 (Histone deacetylase 9): > 30 µM; IC50 [2]: > 30 µM; IC50 (Histone deacetylase 11): 1.2 µM
2 | FC(F)(F)c1ccc(-c2ccc3c(c2)C2CC3CCN2C2CCCC2)cc1 (centres undefined) | – | – | – | – | Ki [3]: 0.061 µM
3 | O=[N+]([O-])c1ccc([C@@H]2C[C@H]3Cc4ccc5ccccc5c4N2O3)o1 | 8.6 | 13.9 | 85.4 | 931 | –
4 | O=C1Cc2cnn(-c3cccc(Br)c3)c2-c2ccccc2N1 | – | – | – | – | IC50 (HeLa): 1.32 µM
5 | O[C@@H]1Cc2cc(Br)c3ccccc3c2N[C@H](c2cccc(Cl)c2Cl)C1 | 3.3 | 11.8 | 40.1 | 59.8 | –
6 | CCN1CCN(c2ccc3c(c2)C2CCN(C(=O)OCc4ccccc4)C3C2)CC1 (centres undefined) | – | – | – | – | Ki [3]: 0.116 µM
7 | Cc1ccccc1[C@@H]1C[C@H](O)Cc2ccc3ccccc3c2N1 | 2.5 | 36.2 | 36.1 | 41.6 | –
8 | C[C@@H]1[C@H](O)[C@@H](C)/C=C/C=C/C=C/C=C/C=C/C=C/C=C/[C@H](O[C@@H]2O[C@H](C)[C@@H](O)[C@H](N)[C@@H]2O)C[C@@H]2O[C@](O)(C[C@@H](O)C[C@@H](O)[C@H](O)CC[C@@H](O)C[C@@H](O)CC(=O)O[C@H]1C)C[C@H](O)[C@H]2C(=O)O [AMPHOTERICIN B] | – | 0.01 | – | – | –
9 | COc1cccc([C@@H]2C[C@H]3Cc4cc(Br)c5ccccc5c4N2O3)c1 | 11.9 | 40.1 | > 1520 | > 1520 | –
10 | O=[N+]([O-])c1ccc([C@@H]2C[C@H]3Cc4ccc5ccccc5c4N2O3)cc1 | 8.6 | 5 | > 903 | > 903 | –
11 | Cc1ccc([C@@H]2C[C@H]3Cc4ccc5ccccc5c4N2O3)s1 | 11.3 | 10.9 | 498 | > 977 | –
12 | CN1CCN(c2ccc3c(c2)C2CC3CCN2C(=O)OCc2ccc(F)cc2)CC1 (centres undefined) | – | – | – | – | Ki [3]: 0.011 µM
13 | Cc1ccc([C@@H]2C[C@H]3Cc4ccc5ccccc5c4N2O3)o1 | 9.6 | 15.4 | 94.5 | 22.5 | –
14 | OCCCN1CCC2CC1c1cc(-c3ccc(C(F)(F)F)cc3)ccc12 (centres undefined) | – | – | – | – | Ki [3]: 0.046 µM
15 | O=C(NO)c1ccc(CN2c3ccccc3S(=O)(=O)C[C@H]3CCCC[C@H]32)cc1 | – | – | – | – | IC50 [1]: 0.1 µM
16 | COC(=O)Nc1nc2cc(C(=O)c3cccs3)ccc2[nH]1 [NOCODAZOLE] | – | – | – | – | IC50 (HeLa): > 2 µM
17 | O[C@@H]1Cc2cc(Br)c3ccccc3c2N[C@H](c2ccccc2Cl)C1 | 11.1 | 8.9 | 16 | 11.1 | –
18 | Cc1ccccc1[C@@H]1C[C@H](O)Cc2cc(Br)c3ccccc3c2N1 | 7.1 | 7.7 | 113 | 7.1 | –
19 | O=C1Cc2cnn(-c3cc(Cl)cc(Cl)c3)c2-c2ccccc2N1 | – | – | – | – | IC50 (HeLa): 1.32 µM
20 | O=C1Cc2c([nH]c3ccc(Br)cc23)-c2ccccc2N1 [KENPAULLONE] | – | – | – | – | IC50 (HeLa): > 2 µM
21 | O[C@@H]1Cc2cc(Br)c3ccccc3c2N[C@H](c2ccccc2)C1 | 12.2 | 617 | 25.3 | 24 | –
22 | O=C1Cc2cnn(-c3cc(Cl)cc(Cl)c3)c2-c2cc(Br)ccc2N1 | – | – | – | – | IC50 (HeLa): 1.32 µM
23 | CC1CS(=O)(=O)CCN1/N=C/c1ccc([N+](=O)[O-])o1 (centres undefined) [NIFURTIMOX] | – | – | 67.5 | – | –
24 | Brc1ccc([C@@H]2C[C@H]3Cc4ccc5ccccc5c4N2O3)s1 | 8.3 | 21.6 | > 809 | > 809 | –
25 | O[C@@H]1Cc2cc(Br)c3ccccc3c2N[C@H](c2cccc(Cl)c2)C1 | 6.3 | 48.2 | 10 | 45.1 | –
